Assay results: patent publication US6121512A, “Cytochrome P-450 constructs and method of producing herbicide-resistant transgenic plants” (North Carolina State University, priority 1997, dated 2000)

Legend:
[1] = target: T1, CYP73A1 (trans-cinnamic acid hydroxylase) (Helianthus tuberosus, UniProt Q04468); settings: CYP73A1 expressed in yeast, chlortoluron ring-methyl hydroxylation; cited from earlier work
T1 construct: host or cells: yeast
T1 sequence (Q04468 1-505): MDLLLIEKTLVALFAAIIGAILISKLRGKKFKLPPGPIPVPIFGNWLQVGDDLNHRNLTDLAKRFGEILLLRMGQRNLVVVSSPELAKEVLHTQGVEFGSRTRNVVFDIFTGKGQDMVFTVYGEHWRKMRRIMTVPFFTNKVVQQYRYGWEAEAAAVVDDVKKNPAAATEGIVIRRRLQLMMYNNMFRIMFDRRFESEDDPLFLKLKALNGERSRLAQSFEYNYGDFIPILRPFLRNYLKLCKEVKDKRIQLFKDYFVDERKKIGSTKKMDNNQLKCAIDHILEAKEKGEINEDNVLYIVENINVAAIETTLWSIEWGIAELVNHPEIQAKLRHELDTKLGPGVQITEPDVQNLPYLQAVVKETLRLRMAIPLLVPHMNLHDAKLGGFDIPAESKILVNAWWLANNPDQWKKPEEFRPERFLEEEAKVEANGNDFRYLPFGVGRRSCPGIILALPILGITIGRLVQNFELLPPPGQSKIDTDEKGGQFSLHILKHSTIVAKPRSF

[2] = target: T2, soybean CYP71A10 (Glycine max, UniProt O48918); assay: In vitro herbicide metabolism assay and enzyme kinetics, microsomes of yeast expressing CYP71A10; assay type: biochemical
T2 construct: microsomes of yeast W(R) overexpressing endogenous P450 reductase
T2 sequence (O48918 1-513): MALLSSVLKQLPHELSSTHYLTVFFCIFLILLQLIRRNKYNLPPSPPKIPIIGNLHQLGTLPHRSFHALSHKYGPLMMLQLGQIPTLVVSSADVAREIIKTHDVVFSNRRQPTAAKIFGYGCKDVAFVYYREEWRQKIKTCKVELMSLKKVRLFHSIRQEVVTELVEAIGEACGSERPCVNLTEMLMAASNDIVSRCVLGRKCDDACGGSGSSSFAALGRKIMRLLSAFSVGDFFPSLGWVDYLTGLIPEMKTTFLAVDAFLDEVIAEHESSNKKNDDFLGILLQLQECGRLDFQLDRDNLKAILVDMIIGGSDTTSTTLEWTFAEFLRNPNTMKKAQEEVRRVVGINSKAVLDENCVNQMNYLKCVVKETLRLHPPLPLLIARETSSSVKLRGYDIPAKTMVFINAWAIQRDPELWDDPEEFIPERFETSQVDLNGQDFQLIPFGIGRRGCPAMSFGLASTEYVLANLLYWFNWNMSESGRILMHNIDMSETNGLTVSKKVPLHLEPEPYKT
T2 sequence (P16603 1-691 partner): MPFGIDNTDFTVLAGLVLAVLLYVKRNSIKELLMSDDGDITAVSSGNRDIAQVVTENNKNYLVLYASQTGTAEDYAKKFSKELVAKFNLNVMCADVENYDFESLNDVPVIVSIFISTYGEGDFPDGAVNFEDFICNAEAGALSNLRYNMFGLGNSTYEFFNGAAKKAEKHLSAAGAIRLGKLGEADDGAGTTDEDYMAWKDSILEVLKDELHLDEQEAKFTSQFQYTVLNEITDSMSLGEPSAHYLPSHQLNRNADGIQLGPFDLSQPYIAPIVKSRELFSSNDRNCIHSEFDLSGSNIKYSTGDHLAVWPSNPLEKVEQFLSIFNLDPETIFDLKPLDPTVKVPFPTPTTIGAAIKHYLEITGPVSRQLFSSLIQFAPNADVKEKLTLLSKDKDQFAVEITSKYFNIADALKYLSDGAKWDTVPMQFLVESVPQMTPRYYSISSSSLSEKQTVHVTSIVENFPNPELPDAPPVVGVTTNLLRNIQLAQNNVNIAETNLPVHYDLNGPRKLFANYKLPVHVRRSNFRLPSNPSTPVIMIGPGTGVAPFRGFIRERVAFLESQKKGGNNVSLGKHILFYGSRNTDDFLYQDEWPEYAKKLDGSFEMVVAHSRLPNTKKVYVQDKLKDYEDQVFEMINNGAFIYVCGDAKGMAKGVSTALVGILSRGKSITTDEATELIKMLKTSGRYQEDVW
Method: Yeast transformation was performed as described by Geitz et al., Nucleic Acids Research 20:1425 (1992). Media composition, culturing conditions, galactose induction, and microsomal preparations were conducted according to Pompon et al., Methods Enzymol. 272:51-64 (1995), using a culture volume of 250 ml. Microsomal protein was quantified spectrophotometrically using the method of Waddell, J. Lab. Clin. Med. 48:311-314 (1956), using bovine albumin as a standard. Dithionite-reduced, carbon monoxide difference spectra was obtained as previously outlined (Estabrook and Werringloer, Methods Ennzmol. 52:212-220 (1978)) using a Shimadzu Recording Spectrophotometer UV-240 (Shimadzu, Kyoto, Japan). P-450 protein concentrations of yeast microsomes were calculated using a millimolar extinction coefficient of 91 (Omura and Sato, J. Biol. Chem., 239:2370-2378 (1964)).
Yeast microsomes enriched for a discrete soybean P-450 isozyme were assayed for their capacity to metabolize the ten herbicides and one insecticide listed in Table 3. The reaction mixtures contained 10,000 DPM (100-200 ng) radiolabeled substrate, 0.75 mM NAPDH, 2.5 mg/ml microsomal protein. Total reaction volumes were adjusted to 150 μl with 50 mM phosphate buffer (pH 7.1). The mixtures were incubated under light for 45 minutes at 27° C., arrested with 50 μl acetone and centriftiged at 14 000×g for 2 minutes. […] Radiolabeled bentazon and imazaquin-containing samples were spotted onto 200 micron Whatman LKC18F silica gel reversed-phase plates. All plates were developed in a benzene/acetone 2:1 (v/v) solvent system with the exception of prosulfaron, developed in toluene/acetone/acetic acid, 75:20:5 (v/v/v), and bentazon and imazaquin, developed in methanol/75 mM sodium acetate 40:60 (v/v). The developed plates were scanned with a Bioscan System 400 imaging scanner (Bioscan, Washington, D.C.), and the production of metabolites was determined based on the chromatographic profiles. For microsomes containing the expressed CYP71A10 enzyme, control experiments were also conducted to measure the NADPH-dependency, and the inhibitory effects of CO. CO treatment of the sample was achieved by gentle bubbling of the gas through the reaction mixture for 2 minutes immediately before the assay was initiated by the addition of NADPH.
Substrate conversion was quantified by a combination of TLC analysis and scintillation spectrometry. The location of the metabolic products on the TLC plates was identified using an imaging scanner, the bands were scraped and analyzed by scintillation spectrometry. The amount of metabolite produced was calculated based on specific activity and scintillation counts. Each assay was repeated at least twice. Km and Vmax values were estimated using nonlinear regression analysis.

Cc1ccc(NC(=O)N(C)C)cc1Cl [Chlortoluron, chlortoluron]
turnover number of the heterologously expressed enzyme [1]: 0.014 /min
metabolites formed from the radiolabeled herbicide (TLC) ([2]; 45 minutes at 27° C., 0.75 mM NADPH, 2.5 mg/ml microsomal protein): two (a major and a minor) metabolites
Turnover ([2]; yeast microsomes containing CYP71A10, standard error in parentheses): 0.7 (0.05) min^-1
